Reference: patent US4996201A, “4-(N-substituted amino)-2-butynyl-1-carbamates and thiocarbamates and derivatives thereof as centrally acting muscarinic agents” (Warner-Lambert Co., priority 1989, dated 1991)
Structures can show the parent of a compound that is named as a salt.

Columns and labels:
[1] = in vivo; cited from earlier work
[2] = system: central muscarinic antagonist site; type: binding; conditions: rat cerebral cortex tissue; radiolabeled quinuclidinyl benzilate; (1 μM); read-out: RQNB IC50
laboratory rats = assay: Scopolamine Induced Swimming Assay (SIS); type: in vivo, rat; conditions: for reversal of scopolamine-induced swimming hyperactivity: rats given scopolamine, result in words
Experimental: In the Scopolamine Induced Swimming Assay (SIS) the ability of a test compound to reverse the hyperactive swimming behavior of laboratory rats given scopolamine is determined. In the assay, untreated rats generally swim between 20 to 30 meters during a five-minute test period. […] The effect of scopolamine is centrally mediated. Thus, the ability of the test compound to reverse the hyperactive swimming behavior induced by scopolamine is a measure of the central cholinergic activity of the compound.

[3] = molecular target: central muscarinic agonist site; assay: Receptor [3H]Cis-methyldioxalane Assay (RCMD), central muscarinic agonist site binding; conditions: rat cerebral cortex tissue; radiolabeled cis-methyldioxalane; head also prints (0.1 μM)
[4] = system: human SK-N-SH cells bearing muscarinic binding sites; assay: Muscarinic Induced Inositol Phosphate Accumulation Assay (MIPA); type: cell-based; conditions: inositol phosphate production, concentration for response 50% of the maximum, read-out: Agonist Response ED50
Experimental: In the Muscarinic Induced Inositol Phosphate Accumulation Assay (MIPA) human SK-N-SH cells bearing muscarinic binding sites are incubated with the test compound. The production of inositol phosphates is then measured. Stimulation of inositol phosphate turnover reflects the degree of muscarinic agonist activity of the test compound. The concentration of test compound required to produce a response 50% of the maximum is then determined.

[5] = system: aged humans and nonhuman primates; conditions: acetylcholinesterase inhibitor; cited from earlier work
mice = conditions: cited from earlier work
[6] = in vivo; cited from earlier work; remark: listed apart in the source

For Nc1ccncc1N [3,4-diaminopyridine], which age-related cognitive deficits [1] is on record?
The age-related cognitive deficits was “ameliorate age-related cognitive deficits”.

For COC(=O)N(C)CC#CCN1CCCC1 [Example 1, Methyl[methyl4-(1-pyrrolidinyl]-2-butynyl]]-carbamate, ethanedioate (1:1) (salt)], which IC50 [2] is on record?
The IC50 was 2660 nM.

What about the minimal effective dose (laboratory rats; Rattus norvegicus, Minimal Effective Dose to reverse scopolamine (0.1 mg/kg) induced hyperactive swimming in rats, read-out: Reversal of SIS Hyperactivity MED) of the same molecule?
Its minimal effective dose is 10 mg/kg.

And the IC50 [3]?
Its IC50 is 14.3 nM.

What about the EC50 [4] of the same molecule?
The EC50 was 10000 nM.

With COC(=O)N(C)CC#CCN1CCCCC1 [Example 1f, Methyl methyl[4-(1-piperidinyl]-2-butynyl-carbamate, ethanedioate (1:1) (salt)] as the molecule, how does the IC50 [2] read?
Its IC50 is 4990 nM.

And the IC50 [3]?
The IC50 was 1570 nM.

With COC(=O)N(C)CC#CCN1CCCCCC1 [Example 1g, Methyl[4-(hexahydro-1H-azepin-1-yl]-2-butynyl]methylcarbamate, ethanedioate (1:1) (salt)] as the molecule, how does the IC50 [2] read?
The IC50 was 1950 nM.

What about the IC50 [3] of the same molecule?
The IC50 was 958 nM.

For COC(=O)N(C)CC#CCN(C)C [Example 2, Methyl[4-(dimethylamino)-2-butynyl]methyl-carbamate, ethanedioate (1:1)(salt)], which IC50 [2] is on record?
The IC50 was 46600 nM.

What about the IC50 [3] of the same molecule?
The IC50 was 63 nM.

What about the EC50 [4] of the same molecule?
Its EC50 is 59200 nM.

Which “reversal of scopolamine-induced swimming hyperactivity” value (laboratory rats) does the source give for COC(=O)C1=CCCN(C)C1 [arecoline] here?
Its value is “can be reversed”.

Which memory [5] does the source give for CNC(=O)Oc1ccc2c(c1)[C@]1(C)CCN(C)[C@@H]1N2C [physostigmine] here?
Its memory is “improved memory”.

And the “reversal of scopolamine-induced swimming hyperactivity” value (laboratory rats)?
Its value is “can be reversed”.

With CN1[C@@H]2C[C@@H](OC(=O)[C@H](CO)c3ccccc3)C[C@H]1[C@@H]1O[C@@H]12 [scopolamine] as the molecule, how does the “swimming distance increase above baseline values” (laboratory rats; scopolamine 0.1 mg/kg, five-minute test period, rats) read?
Its value is 75-125%.

Which results are given for C(#CCN1CCCC1)CN1CCCC1 [tremorine, 1,4-dipyrrolidino-2-butyne]?
duration of profound tremor of the head and limbs (mice): more than one; conversion to active metabolite oxotremorine [6]: converted to an active metabolite, oxotremorine
